Data on 23 molecules can be found in patent publication US20090088432A1, “Thiazolinones and Oxazolinones and their Use as Ptp1b Inhibitors” (priority 2005, published 2009).

Counter-ions that a name gives are not always drawn.

In this test the target is T1, Recombinant human Protein-tyrosine phosphatase1B (PTP1B) (Homo sapiens, UniProt P18031).
T1 construct: Recombinant human Protein-tyrosine phosphatase1B (PTP1B) (amino acid 1-322 Biomol, USA); purchased Biomol, USA
T1 sequence (P18031 1-322): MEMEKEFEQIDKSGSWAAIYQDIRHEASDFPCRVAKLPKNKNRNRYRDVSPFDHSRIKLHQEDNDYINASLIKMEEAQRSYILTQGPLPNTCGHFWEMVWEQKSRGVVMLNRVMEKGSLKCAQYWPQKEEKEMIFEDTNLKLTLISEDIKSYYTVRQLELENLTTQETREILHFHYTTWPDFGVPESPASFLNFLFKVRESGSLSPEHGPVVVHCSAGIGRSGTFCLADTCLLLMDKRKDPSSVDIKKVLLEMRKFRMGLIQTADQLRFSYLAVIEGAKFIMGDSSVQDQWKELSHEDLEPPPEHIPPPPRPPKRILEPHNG
The test is described as follows: PTP1B enzyme inhibition assay (pNpp substrate). The format is biochemical. To be noted: inhibition of recombinant human PTP1B, pNpp 5 mM, 30 mins at 25° C; inhibitor concentration not given. The procedure, abridged:
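Recombinant human PTP1B (0.016 μg/well) preincubated with compound 30 min at 25 °C in 50 mM HEPES pH 7.4, 1 mM EDTA, 1 mM DTT, 0.05% Igepal, 1% DMSO final. Reaction started with 5 mM pNpp, run 30 min at 25 °C; p-nitrophenol read at 410 nm.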
With `O=C(O)Cc1ccc(NC2=NC(=O)C(=Cc3ccc4[nH]ccc4c3)S2)cc1` [Compound 170, {4-[5-(H-Indol-5-ylmethylene)-4-oxo-4,5-dihydro-thiazol-2-ylamino]-phenyl}-acetic acid], the “Activity Score” value is listed as “(+++) (+++ = >50% inhibition)”.

Turning to `Cc1ccc(S(=O)(=O)NC(=O)Cc2ccc(NC3=NC(=O)C(=Cc4ccc(N5CCN(c6ccccn6)CC5)cc4)S3)cc2)cc1.[Na]` [Compound 173, 4-Methyl-N-[2-(4-{4-oxo-5-[4-(4-pyridin-2-yl-piperazin-1-yl)-benzylidene]-4,5-dihydro-thiazol-2-ylamino}-phenyl)-acetyl]-benzenesulfonamide sodium salt], the “Activity Score” value is recorded as “(+++) (+++ = >50% inhibition)”.

In the case of `COc1cc2ccccc2cc1C=C1SC(Nc2ccc(CCC(=O)[O-])cc2)=NC1=O.[Na+]` [Compound 177, 3-{-4-[5-(3-Methoxy-naphthalen-2-ylmethylene)-4-oxo-4,5-dihydro-thiazol-2-ylamino]-phenyl}-sodium propionate], the “Activity Score” value was “(+++) (+++ = >50% inhibition)”.

On to `O=C(O)Cc1ccc(NC2=NC(=O)C(=Cc3ccc(-c4ccc(O)cc4)cc3)S2)cc1` [Compound 199, {4-[5-(4′-Hydroxy-biphenyl-4-ylmethylene)-4-oxo-4,5-dihydro-thiazol-2-ylamino]-phenyl}-acetic acid], for which the “Activity Score” value is “(+++) (+++ = >50% inhibition)”.

For `O=C(O)Cc1ccc(NC2=NC(=O)C(=Cc3ccc(-c4ccccc4)cc3)S2)cc1C(=O)O` [Compound 200, 5-(5-Biphenyl-4-ylmethylene-4-oxo-4,5-dihydro-thiazol-2-ylamino)-2-carboxymethyl-benzoic acid], the “Activity Score” value is “(+++) (+++ = >50% inhibition)”.

For `O=C(O)COc1ccc(-c2ccc(C=C3SC(Nc4ccc(CC(=O)O)cc4)=NC3=O)cc2)cc1` [Compound 201, {4-[5-(4′-Carboxymethoxy-biphenyl-4-ylmethylene)-4-oxo-4,5-dihydro-thiazol-2-ylamino]-phenyl}-acetic acid], the “Activity Score” value is recorded as “(+++) (+++ = >50% inhibition)”.

With `O=C([O-])CCc1ccc(NC2=NC(=O)C(=Cc3ccc4cc(F)ccc4c3)S2)cc1.[Na+]` [Compound 205, 3-{4-[5-(6-Fluoro-naphthalen-2-ylmethylene)-4-oxo-4,5-dihydro-thiazol-2-ylamino]-phenyl}-sodium propionate], the “Activity Score” value was “(+++) (+++ = >50% inhibition)”.

As for `NS(=O)(=O)c1ccc(-c2ccc(C=C3SC(Nc4ccc(CC(=O)O)cc4)=NC3=O)cc2)cc1` [Compound 210, {4-[4-Oxo-5-(4′-sulfamoyl-biphenyl-4-ylmethylene)-4,5-dihydro-thiazol-2-ylamino]-phenyl}-acetic acid], the “Activity Score” value is recorded as “(+++) (+++ = >50% inhibition)”.

Turning to `Cc1ccc(S(=O)(=O)NC(=O)Cc2ccc(NC3=NC(=O)C(=Cc4ccc(-c5ccc(O)cc5)cc4)S3)cc2)cc1.[Na].[Na]` [Compound 212, N-(2-{4-[5-(4′Hydroxy-biphenyl-4-ylmethylene)-4-oxo-4,5-dihydro-thiazol-2-ylamino]-phenyl}-acetyl)-4-methyl-benzenesulfonamide di-sodium salt], the “Activity Score” value is given as “(++) (++ = 20-50% inhibition)”.

Regarding `Cc1ccc(S(=O)(=O)NC(=O)Cc2ccc(NC3=NC(=O)C(=Cc4cc5ccccc5cc4OCC(=O)O)S3)cc2)cc1` [Compound 213, [3-(4-Oxo-2-{4-[2-oxo-2-(toluene-4-sulfonylamino)-ethyl]-phenylamino}-4H-thiazol-5-ylidenemethyl)-naphthalen-2-yloxy]-acetic acid], the “Activity Score” value is on record as “(++) (++ = 20-50% inhibition)”.

For the molecule `CCOc1ccc(-c2ccc(C=C3SC(Nc4ccc(CC(=O)NS(=O)(=O)c5ccc(C)cc5)cc4)=NC3=O)cc2)cc1.[Na]` [Compound 214, N-(2-{4-[5-(4′-Ethoxy-biphenyl-4-ylmethylene)-4-oxo-4,5-dihydro-thiazol-2-ylamino]-phenyl}-acetyl)-4-methyl-benzenesulfonamide sodium salt], the “Activity Score” value was “(+++) (+++ = >50% inhibition)”.

On to `Cc1ccc(S(=O)(=O)NC(=O)Cc2ccc(NC3=NC(=O)C(=Cc4ccc(-c5ccc(F)cc5)cc4)S3)cc2)cc1` [Compound 215, N-(2-{4-[5-(4′-Fluoro-biphenyl-4-ylmethylene)-4-oxo-4,5-dihydro-thiazol-2-ylamino]-phenyl}-acetyl)-4-methyl-benzenesulfonamide sodium salt], for which the “Activity Score” value was “(+++) (+++ = >50% inhibition)”.

As to `O=C(Cc1ccc(NC2=NC(=O)C(=Cc3ccc(-c4ccccc4)cc3)S2)cc1)NS(=O)(=O)c1ccc(C(F)(F)F)cc1.[Na]` [Compound 219, N-{2-[4-(5-Biphenyl-4-ylmethylene-4-oxo-4,5-dihydro-thiazol-2-ylamino)-phenyl]-acetyl}-4-trifluoromethyl-benzenesulfonamide, sodium salt], the “Activity Score” value is reported as “(+++) (+++ = >50% inhibition)”.

In the case of `O=C(Cc1ccc(NC2=NC(=O)C(=Cc3ccc(-c4ccccc4)cc3)S2)cc1)NS(=O)(=O)c1cccs1.[Na]` [Compound 223, Thiophene-2-sulfonic acid {2-[4-(5-biphenyl-4-ylmethylene-4-oxo-4,5-dihydro-thiazol-2-ylamino)-phenyl]-acetyl}-amide, sodium salt], the “Activity Score” value is “(++) (++ = 20-50% inhibition)”.

With `O=C(Cc1ccc(NC2=NC(=O)C(=Cc3ccc(-c4ccccc4)cc3)S2)cc1)NS(=O)(=O)c1ccc(F)cc1.[Na]` [Compound 224, N-{2-[4-(5-Biphenyl-4-ylmethylene-4-oxo-4,5-dihydro-thiazol-2-ylamino)-phenyl]-acetyl}-4-fluoro-benzenesulfonamide, sodium salt], the “Activity Score” value was “(++) (++ = 20-50% inhibition)”.

As to `CS(=O)(=O)NC(=O)Cc1ccc(NC2=NC(=O)C(=Cc3ccc(-c4ccccc4)cc3)S2)cc1.[Na]` [Compound 225, N-{2-[4-(5-Biphenyl-4-ylmethylene-4-oxo-4,5-dihydro-thiazol-2-ylamino)-phenyl]-acetyl}-methanesulfonamide, sodium salt], the “Activity Score” value is recorded as “(+) (+ = 10-20% inhibition)”.

On to `COc1ccc(S(=O)(=O)NC(=O)Cc2ccc(NC3=NC(=O)C(=Cc4ccc(-c5ccccc5)cc4)S3)cc2)cc1.[Na]` [Compound 226, N-{2-[4-(5-Biphenyl-4-ylmethylene-4-oxo-4,5-dihydro-thiazol-2-ylamino)-phenyl]-acetyl}-4-methoxy-benzenesulfonamide, sodium salt], for which the “Activity Score” value was “(+++) (+++ = >50% inhibition)”.

Turning to `CSc1ccc(-c2ccc(C=C3SC(Nc4ccc(CC(=O)NS(=O)(=O)c5ccc(C(F)(F)F)cc5)cc4)=NC3=O)c(F)c2)cc1.[Na]` [Compound 239, N-(2-{4-[5-(3-Fluoro-4′-methylsulfanyl-biphenyl-4-ylmethylene)-4-oxo-4,5-dihydro-thiazol-2-ylamino]-phenyl}-acetyl)-4-trifluoromethyl-benzenesulfonamide sodium salt], the “Activity Score” value is “(+) (+ = 10-20% inhibition)”.

In the case of `N#Cc1ccc(-c2ccc(C=C3SC(Nc4ccc(CC(=O)O)cc4)=NC3=O)cc2)cc1` [Compound 243, {4-[5-(4′-Cyano-biphenyl-4-ylmethylene)-4-oxo-4,5-dihydro-thiazol-2-ylamino]-phenyl}-acetic acid], the “Activity Score” value is “(+++) (+++ = >50% inhibition)”.

Regarding “(4-{2-[5-(3-Benzyloxy-naphthalen-2-ylmethylene)-4-oxo-4,5-dihydro-thiazol-2-ylamino]-acetyl amino}-phenyl)-acetic acid [Compound 22]”, the “Activity Score” value is recorded as “(+++) (+++ = >50% inhibition)”.

In the case of “(4-{5-[3-(3-Methoxy-benzyloxy)-naphthalen-2-ylmethylene]-4-oxo-4-4,5-dihydro-thiazol-2-ylamino}-phenyl)-sodium acetate [Compound 181]”, the “Activity Score” value was “(+) (+ = 10-20% inhibition)”.

In the case of “[4-(N′-{4-Oxo-5-[4-(1H-tetrazol-5-yl)-benzylidene]-4,5-dihydro-thiazol-2-yl}-hydrazino)-phenyl]-acetic acid [Compound 34]”, the “Activity Score” value is “(+++) (+++ = >50% inhibition)”.

On to “{3-[5-(1-Carbamoylmethyl-1H-indol-3-ylmethylene)-4-oxo-4,5-dihydro-thiazol-2-ylamino]-phenyl}-acetic acid [Compound 23]”, for which the “Activity Score” value is listed as “(+++) (+++ = >50% inhibition)”.
